According to US10738028B2, “Spiro three-membered ring, spiro five-membered ring peptide deformylase inhibitor and use thereof in antibacteria and anti-tumor” (priority 2016, dated 2020):
≈ marks a conversion by molar mass, not a printed value. Like-named read-outs stand apart in the source and are kept apart here.

Key:
Format in all cases: cell-based
[1] = system: methicillin-sensitive Staphylococcus aureus (MSSA); assay: MIC, two-fold agar dilution (CLSI), clinical isolates
Excerpt: (§1) 1. The invention adopts the two-fold agar dilution method recommended by the operating procedure of antimicrobial susceptibility testing set by American Clinical and Laboratory Standards Institute (CLSI) to determine the Minimum Inhibitory Concentration (MIC) of the test samples against the tested strains.

[2] = system: methicillin-resistant Staphylococcus epidermidis (MRSE); assay: as above
Excerpt: as §1

[3] = system: methicillin-sensitive Staphylococcus epidermidis (MSSE); assay: as above
Excerpt: as §1

[4] = system: Escherichia coli (including ESBLs, non-ESBLs); assay: as above
Excerpt: as §1

[5] = system: methicillin-resistant Staphylococcus aureus (MRSA); assay: as above
Excerpt: as §1

[6] = system: Enterococcus faecalis (EFA); assay: as above
Excerpt: as §1

[7] = system: HCT-116 colorectal cancer cell line; assay: CCK-8 proliferation inhibition; settings: Homo sapiens, HCT-116, 72 h, read-out: HCT116 inhibition rate/%
Description: (1) HCT-116 colorectal cancer cell line, A549 lung cancer cell line, MGC-803 gastric cancer cell line, BEL-7402 liver cancer cell line, Jurkat T cell leukemia cell line, HL60 acute myeloid leukemia cell line, Hela cervical cancer cell line, MCF-7 breast cancer cell line, PC3 prostate cancer cell line and SAOS-2 osteosarcoma cell line were made into single cell suspension, 180 μL of which was inoculated into 96-well culture plate, which was cultured overnight in CO2 incubator (37° C., 5% CO2, 95% air).
(2) Each of the spiro three-membered ring, spiro five membered ring peptide deformylase inhibitors was dissolved in DMSO, and was further formulated into drug solution with required different final concentration using corresponding cell culture medium. The drug solutions were added to the above cells respectively (20 μL/well), with the control group added with 1‰ DMSO, and cultured in a CO2 incubator for 72 hours.
(3) After incubation for 72 hours, the culture solution was decanted, and 100 μL of 1:10 diluted CCK-8 solution was added.
Wherein, in step (1), the concentration of the single cell suspension was 2000 cells/well.
Wherein, in step (2), HCT-116 cells were cultured in McCoy's 5A medium (containing 10% newborn bovine serum, 1% double antibody); A549 and PC3 cells were cultured in F12 medium (containing 10% newborn bovine serum, 1% double antibody); MGC-803, BEL-7402, SAOS-2, Jurkat and HL60 cells were cultured in 1640 medium (containing 10% newborn bovine serum, 1% double antibody); and MCF-7 and Hela cells were cultured in DMEM high glucose medium (containing 10% newborn bovine serum, 1% double antibody).

[8] = strain printed MRSA 14-1 (second line of that name, r23, before MRSE 14-2)

`CCCC[C@H](CN(O)C=O)C(=O)N1CC2(CC2)C[C@H]1C(=O)Nc1cc[nH]n1` [Example 1] was tested, and the MIC (anti-bacterial activity) ([1]; strain MSSA 14-1) was 16 µg/mL (≈ 42.4 µM), the MIC (anti-bacterial activity) ([1]; strain MSSA 14-2) was 16 µg/mL (≈ 42.4 µM) and the MIC (anti-bacterial activity) ([1]; strain MSSA 14-3) was 16 µg/mL (≈ 42.4 µM). For the same compound, the MIC (anti-bacterial activity) ([1]; strain MSSA 14-4) was 16 µg/mL (≈ 42.4 µM), the MIC (anti-bacterial activity) ([2]; strain MRSE 14-2) was 8 µg/mL (≈ 21.2 µM) and the MIC (anti-bacterial activity) ([2]; strain MRSE 14-3) was 4 µg/mL (≈ 10.6 µM). It also gave an MIC (anti-bacterial activity) ([2]; strain MRSE 14-4) of 8 µg/mL (≈ 21.2 µM), an MIC (anti-bacterial activity) ([3]; strain MSSE 14-1) of 4 µg/mL (≈ 10.6 µM) and an MIC (anti-bacterial activity) ([3]; strain MSSE 14-2) of 16 µg/mL (≈ 42.4 µM). It also gave an MIC (anti-bacterial activity) ([3]; strain MSSE 14-3) of 4 µg/mL (≈ 10.6 µM), an MIC (anti-bacterial activity) ([3]; strain MSSE 14-4) of 4 µg/mL (≈ 10.6 µM) and an MIC (anti-bacterial activity) ([4]; strain ECO+ 14-1) of 16 µg/mL (≈ 42.4 µM). For the same compound, the MIC (anti-bacterial activity) ([4]; strain ECO+ 14-2) was 128 µg/mL (≈ 339 µM), the MIC (anti-bacterial activity) ([4]; strain ECO− 14-1) was > 128 µg/mL and the MIC (anti-bacterial activity) ([4]; strain ECO− 14-2) was > 128 µg/mL. The MIC (anti-bacterial activity) ([5]; strain MRSA 14-1) was 16 µg/mL (≈ 42.4 µM), the MIC (anti-bacterial activity) ([5]; strain MRSA 14-2) was 32 µg/mL (≈ 84.8 µM) and the MIC (anti-bacterial activity) ([5]; strain MRSA 14-4) was 16 µg/mL (≈ 42.4 µM). The MIC (anti-bacterial activity) ([5]; strain MRSA 14-5) was 8 µg/mL (≈ 21.2 µM), the MIC (anti-bacterial activity) [5, 8] was 8 µg/mL (≈ 21.2 µM) and the MIC (anti-bacterial activity) ([6]; strain EFA 14-1) was 64 µg/mL (≈ 170 µM). For the same compound, the MIC (anti-bacterial activity) ([6]; strain EFA 14-2) was 64 µg/mL (≈ 170 µM), the MIC (anti-bacterial activity) ([6]; strain EFA 14-3) was 64 µg/mL (≈ 170 µM) and the MIC (anti-bacterial activity) ([6]; strain EFA 14-5) was > 128 µg/mL. It also gave an inhibition at 30 µM [7] of 7%.

For `CCCC[C@H](CN(O)C=O)C(=O)N1CC2(CC2)C[C@H]1C(=O)Nc1ncccc1F` [Example 5], the MIC (anti-bacterial activity) ([1]; strain MSSA 14-1) was 0.5 µg/mL (≈ 1.23 µM), the MIC (anti-bacterial activity) ([1]; strain MSSA 14-2) was 0.5 µg/mL (≈ 1.23 µM) and the MIC (anti-bacterial activity) ([1]; strain MSSA 14-3) was 0.5 µg/mL (≈ 1.23 µM). The MIC (anti-bacterial activity) ([1]; strain MSSA 14-4) was 0.5 µg/mL (≈ 1.23 µM), the MIC (anti-bacterial activity) ([2]; strain MRSE 14-2) was 0.25 µg/mL (≈ 0.615 µM) and the MIC (anti-bacterial activity) ([2]; strain MRSE 14-3) was 0.125 µg/mL (≈ 0.308 µM). The MIC (anti-bacterial activity) ([2]; strain MRSE 14-4) was 0.5 µg/mL (≈ 1.23 µM), the MIC (anti-bacterial activity) ([3]; strain MSSE 14-1) was 0.125 µg/mL (≈ 0.308 µM) and the MIC (anti-bacterial activity) ([3]; strain MSSE 14-2) was 0.25 µg/mL (≈ 0.615 µM). The MIC (anti-bacterial activity) ([3]; strain MSSE 14-3) was 0.25 µg/mL (≈ 0.615 µM), the MIC (anti-bacterial activity) ([3]; strain MSSE 14-4) was 0.25 µg/mL (≈ 0.615 µM) and the MIC (anti-bacterial activity) ([4]; strain ECO+ 14-1) was 2 µg/mL (≈ 4.92 µM). For the same compound, the MIC (anti-bacterial activity) ([4]; strain ECO+ 14-2) was 64 µg/mL (≈ 157 µM), the MIC (anti-bacterial activity) ([4]; strain ECO− 14-1) was > 64 µg/mL and the MIC (anti-bacterial activity) ([4]; strain ECO− 14-2) was 64 µg/mL (≈ 157 µM). The MIC (anti-bacterial activity) ([5]; strain MRSA 14-1) was 0.5 µg/mL (≈ 1.23 µM), the MIC (anti-bacterial activity) ([5]; strain MRSA 14-2) was 0.5 µg/mL (≈ 1.23 µM) and the MIC (anti-bacterial activity) ([5]; strain MRSA 14-4) was 0.5 µg/mL (≈ 1.23 µM). For the same compound, the MIC (anti-bacterial activity) ([5]; strain MRSA 14-5) was 0.25 µg/mL (≈ 0.615 µM), the MIC (anti-bacterial activity) [5, 8] was 0.25 µg/mL (≈ 0.615 µM) and the MIC (anti-bacterial activity) ([6]; strain EFA 14-1) was 2 µg/mL (≈ 4.92 µM). It also gave an MIC (anti-bacterial activity) ([6]; strain EFA 14-2) of 2 µg/mL (≈ 4.92 µM), an MIC (anti-bacterial activity) ([6]; strain EFA 14-3) of 2 µg/mL (≈ 4.92 µM) and an MIC (anti-bacterial activity) ([6]; strain EFA 14-5) of 2 µg/mL (≈ 4.92 µM). It also gave an inhibition at 30 µM ([7]; concentration of 30 μM, 72 hours, CCK-8) of -15%.
